Format in all cases: biochemical
In one test the target is HDAC1 (Homo sapiens (Human), UniProt Q13547). Description: HDAC enzyme assay, HDAC1. Here is the method: (§1) Compounds for testing were diluted in DMSO to 50 fold the final concentration and a ten point three fold dilution series was made. The compounds were diluted in assay buffer (50 mM HEPES, pH 7.4, 100 mM KCl, 0.001% Tween-20, 0.05% BSA, 20 μM TCEP) to 6 fold their final concentration. The HDAC enzymes (purchased from BPS Biosciences) were diluted to 1.5 fold their final concentration in assay buffer. The tripeptide substrate and trypsin at 0.05 μM final concentration were diluted in assay buffer at 6 fold their final concentration. The final enzyme concentrations used in these assays were 3.3 ng/ml (HDAC1), 0.2 ng/ml (HDAC2), 0.08 ng/ml (HDAC3) and 2 ng/ml (HDAC6). The final substrate concentrations used were 16 μM (HDAC1), 10 μM (HDAC2), 17 μM (HDAC3) and 14 μM (HDAC6).
(§2) Five μl of compounds and 20 μl of enzyme were added to wells of a black, opaque 384 well plate in duplicate. Enzyme and compound were incubated together at room temperature for 10 minutes. Five μ1 of substrate was added to each well, the plate was shaken for 60 seconds and placed into a Victor 2 microtiter plate reader. The development of fluorescence was monitored for 60 min and the linear rate of the reaction was calculated. The IC50 was determined using Graph Pad Prism by a four parameter curve fit.

The target of a further test is HDAC6 (Homo sapiens (Human), UniProt Q9UBN7). Description: HDAC enzyme assay, HDAC6. The protocol:
as §1
as §2, with “fit. The IC50 values obtained for several of the compounds of this invention are found in Table 1.” for “fit.”

Another test deals with HDAC2 (Homo sapiens (Human), UniProt Q92769). Briefly: HDAC enzyme assay, HDAC2. Here is the method:
as §1, §2

The target of a further test is HDAC3 (Homo sapiens (Human), UniProt O15379). Briefly: HDAC enzyme assay, HDAC3. The protocol:
Compounds for testing were diluted in DMSO to 50 fold the final concentration and a ten point three fold dilution series was made. The compounds were diluted in assay buffer (50 mM HEPES, pH 7.4, 100 mM KCl, 0.001% Tween-20, 0.05% BSA, 20 μM TCEP) to 6 fold their final concentration. […] The tripeptide substrate and trypsin at 0.05 μM final concentration were diluted in assay buffer at 6 fold their final concentration. The final enzyme concentrations used in these assays were 3.3 ng/ml (HDAC1), 0.2 ng/ml (HDAC2), 0.08 ng/ml (HDAC3) and 2 ng/ml (HDAC6).
as §2

As a reminder, the IC50 is the concentration at which inhibition is half-maximal. Low values mean inhibition by little substance, high ones a need for much substance.

HDAC3, sequence (O15379 whole entry): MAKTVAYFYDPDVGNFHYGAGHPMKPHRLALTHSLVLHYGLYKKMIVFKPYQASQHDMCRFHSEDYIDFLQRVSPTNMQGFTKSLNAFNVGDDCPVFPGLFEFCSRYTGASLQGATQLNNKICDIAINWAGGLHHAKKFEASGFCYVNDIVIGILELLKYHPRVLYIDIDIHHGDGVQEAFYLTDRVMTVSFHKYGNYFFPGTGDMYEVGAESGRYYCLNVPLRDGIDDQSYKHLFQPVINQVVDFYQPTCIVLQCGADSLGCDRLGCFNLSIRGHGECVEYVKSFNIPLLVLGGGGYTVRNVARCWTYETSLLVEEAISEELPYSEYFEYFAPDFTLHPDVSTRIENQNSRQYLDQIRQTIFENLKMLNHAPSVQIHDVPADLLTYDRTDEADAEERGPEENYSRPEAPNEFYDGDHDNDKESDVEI
HDAC3, sequence (Q9Y618 395-489 partner): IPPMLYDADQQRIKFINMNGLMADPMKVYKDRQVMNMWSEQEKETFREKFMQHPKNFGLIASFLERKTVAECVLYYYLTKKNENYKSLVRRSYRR
HDAC1, sequence (Q13547 whole entry): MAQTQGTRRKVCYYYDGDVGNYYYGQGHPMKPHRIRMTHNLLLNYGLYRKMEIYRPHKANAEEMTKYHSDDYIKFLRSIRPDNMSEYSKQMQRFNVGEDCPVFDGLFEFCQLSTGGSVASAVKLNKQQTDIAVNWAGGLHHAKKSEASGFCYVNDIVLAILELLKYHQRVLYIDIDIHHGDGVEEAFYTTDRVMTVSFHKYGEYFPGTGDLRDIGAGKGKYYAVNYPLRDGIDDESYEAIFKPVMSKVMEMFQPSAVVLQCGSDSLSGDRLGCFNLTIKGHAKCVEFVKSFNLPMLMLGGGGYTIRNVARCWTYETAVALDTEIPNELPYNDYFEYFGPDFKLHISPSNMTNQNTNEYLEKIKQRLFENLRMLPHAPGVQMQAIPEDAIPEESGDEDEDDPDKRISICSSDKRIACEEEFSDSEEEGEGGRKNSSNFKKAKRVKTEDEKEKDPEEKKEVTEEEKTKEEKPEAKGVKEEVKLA
HDAC2, sequence (Q92769 whole entry): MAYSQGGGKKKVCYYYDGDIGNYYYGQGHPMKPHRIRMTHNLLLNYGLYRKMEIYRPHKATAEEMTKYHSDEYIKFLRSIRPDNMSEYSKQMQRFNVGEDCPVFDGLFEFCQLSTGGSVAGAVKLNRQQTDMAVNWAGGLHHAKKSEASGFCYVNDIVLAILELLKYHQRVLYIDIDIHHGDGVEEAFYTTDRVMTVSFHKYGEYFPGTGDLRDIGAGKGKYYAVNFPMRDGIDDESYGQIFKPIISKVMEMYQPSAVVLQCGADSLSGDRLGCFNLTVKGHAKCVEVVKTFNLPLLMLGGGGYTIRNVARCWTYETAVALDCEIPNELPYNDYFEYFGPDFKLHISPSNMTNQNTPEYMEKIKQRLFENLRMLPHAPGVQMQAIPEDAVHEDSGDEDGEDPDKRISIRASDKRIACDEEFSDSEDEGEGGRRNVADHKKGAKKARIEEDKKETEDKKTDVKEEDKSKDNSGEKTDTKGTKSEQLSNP
HDAC6, sequence (Q9UBN7 whole entry): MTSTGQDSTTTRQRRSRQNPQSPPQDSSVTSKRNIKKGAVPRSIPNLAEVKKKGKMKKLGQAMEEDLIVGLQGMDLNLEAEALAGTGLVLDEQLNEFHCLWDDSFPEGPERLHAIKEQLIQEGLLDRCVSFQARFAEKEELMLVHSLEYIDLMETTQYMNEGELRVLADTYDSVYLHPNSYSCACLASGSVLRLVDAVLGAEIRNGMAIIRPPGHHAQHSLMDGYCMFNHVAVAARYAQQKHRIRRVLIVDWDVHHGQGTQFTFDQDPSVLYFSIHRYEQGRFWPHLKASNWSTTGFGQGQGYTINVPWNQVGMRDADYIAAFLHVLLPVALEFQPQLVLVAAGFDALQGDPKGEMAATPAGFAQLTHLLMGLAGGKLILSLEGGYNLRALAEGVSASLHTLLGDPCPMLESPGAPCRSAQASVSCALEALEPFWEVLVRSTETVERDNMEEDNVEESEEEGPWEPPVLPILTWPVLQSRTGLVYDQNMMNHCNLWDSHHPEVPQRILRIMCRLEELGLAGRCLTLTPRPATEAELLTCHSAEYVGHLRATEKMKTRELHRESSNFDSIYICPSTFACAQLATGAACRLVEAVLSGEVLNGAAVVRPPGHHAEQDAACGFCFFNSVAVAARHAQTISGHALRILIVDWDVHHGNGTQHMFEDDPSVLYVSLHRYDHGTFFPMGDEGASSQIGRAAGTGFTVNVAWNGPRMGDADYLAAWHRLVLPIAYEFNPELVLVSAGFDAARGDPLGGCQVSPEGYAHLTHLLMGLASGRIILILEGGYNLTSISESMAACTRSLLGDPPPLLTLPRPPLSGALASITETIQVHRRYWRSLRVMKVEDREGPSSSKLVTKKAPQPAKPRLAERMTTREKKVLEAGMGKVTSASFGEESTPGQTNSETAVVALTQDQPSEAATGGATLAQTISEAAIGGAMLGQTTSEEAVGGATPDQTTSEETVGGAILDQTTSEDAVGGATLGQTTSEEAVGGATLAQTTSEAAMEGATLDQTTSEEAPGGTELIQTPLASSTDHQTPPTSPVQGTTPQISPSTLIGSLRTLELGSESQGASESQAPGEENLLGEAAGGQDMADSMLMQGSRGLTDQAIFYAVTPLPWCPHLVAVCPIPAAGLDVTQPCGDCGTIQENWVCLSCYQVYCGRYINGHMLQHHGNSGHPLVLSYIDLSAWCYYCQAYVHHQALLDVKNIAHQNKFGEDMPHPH

With `CC(C)[C@@H](C(=O)N1CCC(Nc2ncc(C(=O)NO)cn2)(c2ccccc2)CC1)c1ccccc1` (stereo in doubt) [Compound 025, N-hydroxy-2-((1-(3-methyl-2-phenylbutanoyl)-4-phenylpiperidin-4-yl)amino)pyrimidine-5-carboxamide], the concentration for half-maximal inhibition (IC50) on HDAC1 is 20 nM; at HDAC6, 13 nM; against HDAC2 it was 18 nM; against HDAC3, 84 nM.

With `CC(C)[C@H](C(=O)N1CCC(Nc2ncc(C(=O)NO)cn2)(c2ccccc2)CC1)c1ccccc1` (stereo in doubt) [Compound 026, N-hydroxy-2-((1-(3-methyl-2-phenylbutanoyl)-4-phenylpiperidin-4-yl)amino)pyrimidine-5-carboxamide], the IC50 against HDAC1 was 206 nM; against HDAC6 it was 5 nM; at HDAC2, 173 nM; against HDAC3 it was 1100 nM.

`CC(C)C[C@H](C(=O)N1CCC(Nc2ncc(C(=O)NO)cn2)(c2ccccc2)CC1)c1ccccc1` (stereo in doubt) [Compound 029, N-hydroxy-2-((1-(4-methyl-2-phenylpentanoyl)-4-phenylpiperidin-4-yl)amino)pyrimidine-5-carboxamide]: the IC50 on HDAC1 was 102 nM; at HDAC6, 11 nM; against HDAC2 it was 93 nM; at HDAC3, 914 nM.

Regarding `CC(C)C[C@@H](C(=O)N1CCC(Nc2ncc(C(=O)NO)cn2)(c2ccccc2)CC1)c1ccccc1` (stereo in doubt) [Compound 030, N-hydroxy-2-((1-(4-methyl-2-phenylpentanoyl)-4-phenylpiperidin-4-yl)amino)pyrimidine-5-carboxamide], the half-maximal inhibitory concentration (IC50) was determined as 23 nM against HDAC1, 12 nM on HDAC6, 22 nM against HDAC2 and 114 nM against HDAC3.

Turning to `O=C(NO)c1cnc(NC2(c3ccccc3)CCN(C(=O)OCc3ccccc3)CC2)nc1` [Compound 002, benzyl 4-((5-(hydroxycarbamoyl)pyrimidin-2-yl)amino)-4-phenylpiperidine-1-carboxylate], the concentration for half-maximal inhibition (IC50) stood at 1010 nM at HDAC1, 2.6 nM on HDAC6, 983 nM at HDAC2 and 1640 nM at HDAC3.

Consider `CC(=O)N1CCC(Nc2ncc(C(=O)NO)cn2)(c2ccccc2)CC1` [Compound 003, 2-((1-acetyl-4-phenylpiperidin-4-yl)amino)-N-hydroxypyrimidine-5-carboxamide], for which the IC50 against HDAC1 stood at 346 nM; against HDAC6, 1.6 nM; against HDAC2 it was 254 nM; on HDAC3, 840 nM.

For `CCOC(=O)N1CCC(Nc2ncc(C(=O)NO)cn2)(c2ccccc2)CC1` [Compound 004, ethyl 4-((5-(hydroxycarbamoyl)pyrimidin-2-yl)amino)-4-phenylpiperidine-1-carboxylate], the half-maximal inhibitory concentration (IC50) was determined as 275 nM against HDAC1, 2.9 nM against HDAC6, 321 nM on HDAC2 and 1000 nM against HDAC3.

Turning to `CC(=O)N1CCC(Nc2ncc(C(=O)NO)cn2)(C(C)C)CC1` [Compound 005, 2-((1-acetyl-4-isopropylpiperidin-4-yl)amino)-N-hydroxypyrimidine-5-carboxamide], the IC50 against HDAC1 stood at 1830 nM; on HDAC6, 5.9 nM; against HDAC2, 2390 nM; against HDAC3, 8180 nM.

For the molecule `CCOC(=O)N1CCC(Nc2ncc(C(=O)NO)cn2)(C(C)C)CC1` [Compound 006, ethyl 4-((5-(hydroxycarbamoyl)pyrimidin-2-yl)amino)-4-isopropylpiperidine-1-carboxylate], the IC50 on HDAC1 was 697 nM; at HDAC6 it was 4 nM; against HDAC2, 809 nM; against HDAC3, 3780 nM.

Turning to `CC(C)C1(Nc2ncc(C(=O)NO)cn2)CCN(C(=O)OCc2ccccc2)CC1` [Compound 007, benzyl 4-((5-(hydroxycarbamoyl)pyrimidin-2-yl)amino)-4-isopropylpiperidine-1-carboxylate], the IC50 against HDAC1 was determined as 119 nM; on HDAC6 it was 5.1 nM; against HDAC2 it was 121 nM; against HDAC3, 879 nM.

Regarding `COc1ccc(NC(=O)N2CCC(Nc3ncc(C(=O)NO)cn3)(c3ccccc3)CC2)cc1` [Compound 008, N-hydroxy-2-((1-((4-methoxyphenyl)carbamoyl)-4-phenylpiperidin-4-yl)amino)pyrimidine-5-carboxamide], the IC50 was determined as 21 nM against HDAC1, 1.5 nM at HDAC6, 24 nM on HDAC2 and 546 nM at HDAC3.

As to `O=C(NO)c1cnc(NC2(c3ccccc3)CCN(c3ccccc3)CC2)nc1` [Compound 009, 2-((1,4-diphenylpiperidin-4-yl)amino)-N-hydroxypyrimidine-5-carboxamide], the half-maximal inhibitory concentration (IC50) on HDAC1 is 356 nM; against HDAC6 it was 2.1 nM; at HDAC2 it was 380 nM; on HDAC3, 1780 nM.

For the molecule `O=C(NO)c1cnc(NC2(c3ccccc3)CCN(C(=O)Nc3ccccc3F)CC2)nc1` [Compound 010, 2-((1-((2-fluorophenyl)carbamoyl)-4-phenylpiperidin-4-yl)amino)-N-hydroxypyrimidine-5-carboxamide], the 50% inhibitory concentration (IC50) is 18 nM against HDAC1, 1.7 nM at HDAC6, 27 nM on HDAC2 and 824 nM at HDAC3.

Take `CN(C(=O)N1CCC(Nc2ncc(C(=O)NO)cn2)(c2ccccc2)CC1)c1ccccc1` [Compound 012, N-hydroxy-2-((1-(methyl(phenyl)carbamoyl)-4-phenylpiperidin-4-yl)amino)pyrimidine-5-carboxamide]: the concentration for half-maximal inhibition (IC50) against HDAC1 amounted to 266 nM; against HDAC6 it was 2.2 nM; on HDAC2, 377 nM; against HDAC3, 1620 nM.

As to `O=C(NO)c1cnc(NC2(c3ccccc3)CCN(C(=O)Nc3cccc(F)c3)CC2)nc1` [Compound 013, 2-((1-((3-fluorophenyl)carbamoyl)-4-phenylpiperidin-4-yl)amino)-N-hydroxypyrimidine-5-carboxamide], the IC50 at HDAC1 is 50 nM; against HDAC6, 2.5 nM; on HDAC2 it was 74 nM; against HDAC3 it was 1080 nM.

In the case of `O=C(NO)c1cnc(NC2(c3ccccc3)CCN(C(=O)Nc3ccc(F)cc3)CC2)nc1` [Compound 014, 2-((1-((4-fluorophenyl)carbamoyl)-4-phenylpiperidin-4-yl)amino)-N-hydroxypyrimidine-5-carboxamide], the half-maximal inhibitory concentration (IC50) against HDAC1 came out at 33 nM; at HDAC6, 2 nM; against HDAC2 it was 43 nM; at HDAC3 it was 1070 nM.

With `Cc1ccc(NC(=O)N2CCC(Nc3ncc(C(=O)NO)cn3)(c3ccccc3)CC2)cc1` [Compound 015, N-hydroxy-2-((4-phenyl-1-(p-tolylcarbamoyl)piperidin-4-yl)amino)pyrimidine-5-carboxamide], the IC50 against HDAC1 stood at 34 nM; against HDAC6 it was 2 nM; against HDAC2, 46 nM; on HDAC3 it was 693 nM.

Turning to `CNC(=O)N1CCC(Nc2ncc(C(=O)NO)cn2)(c2ccccc2)CC1` [Compound 016, N-hydroxy-2-((1-(methylcarbamoyl)-4-phenylpiperidin-4-yl)amino)pyrimidine-5-carboxamide], the 50% inhibitory concentration (IC50) was found to be 170 nM against HDAC1, 1.7 nM against HDAC6, 207 nM against HDAC2 and 987 nM against HDAC3.

Regarding `O=C(NO)c1cnc(NC2(c3ccccc3)CCN(C(=S)Nc3ccccc3)CC2)nc1` [Compound 017, N-hydroxy-2-((4-phenyl-1-(phenylcarbamothioyl)piperidin-4-yl)amino)pyrimidine-5-carboxamide], the IC50 on HDAC1 was determined as 5.9 nM; at HDAC6, 2.4 nM; against HDAC2, 5.2 nM; against HDAC3, 111 nM.

Turning to `O=C(NO)c1cnc(NC2(c3ccccc3)CCN(S(=O)(=O)c3cccc(F)c3)CC2)nc1` [Compound 018, 2-((1-((3-fluorophenyl)sulfonyl)-4-phenylpiperidin-4-yl)amino)-N-hydroxypyrimidine-5-carboxamide], the half-maximal inhibitory concentration (IC50) on HDAC1 came out at 551 nM; at HDAC6, 5.1 nM; against HDAC2, 644 nM; against HDAC3 it was 2480 nM.

Source of the values: patent US9278963B2, “Pyrimidine hydroxy amide compounds as histone deacetylase inhibitors” (Acetylon Pharmaceuticals, Inc., priority 2013, dated 2016).
